# Tested on: Giardia intestinalis
# Assay: Antiprotozoal activity against Giardia intestinalis IMSS:0696:1 trophozoites after 48 hrs
# Format: functional, organism-based
# Settings: Giardia duodenalis
row,SMILES,IC50 [µM]
1,COC(=O)[C@]1(C)CC[C@]2(C)CC[C@]3(C)C4=CC=C5C(=CC(=O)[C@]6(O)Oc7cc8c(cc7O[C@]56C)C(=O)C=C5[C@@]8(C)CC[C@@]6(C)[C@@H]7C[C@](C)(C(=O)OC)CC[C@]7(C)CC[C@]56C)[C@]4(C)CC[C@@]3(C)[C@@H]2C1 [XUXARINE EBETA],11.3
2,COC(=O)[C@]1(C)CC[C@]2(C)CC[C@]3(C)C4=CC=C5C(=CC(=O)C(O)=C5C)[C@]4(C)CC[C@@]3(C)[C@@H]2C1 [PRISTIMERIN],0.11
3,C[C@H]1C(=O)CCC2[C@]3(C)CC[C@@]4(C)C5CC(C)(C)[C@H](O)C[C@]5(C)CC[C@]4(C)C3CC[C@@]21C (stereo partly specified),19.8
4,CC1=C(O)C(=O)C=C2C1=CC=C1[C@@]2(C)CC[C@@]2(C)[C@@H]3C[C@@H](C)C(=O)C[C@]3(C)CC[C@]12C [TINGENONE],0.74
5,COC(=O)/C=C1\C(C(C)=O)=CC=C2[C@]3(C)CC[C@@]4(C)CC[C@@](C)(C(=O)OC)CC4[C@@]3(C)CC[C@]21C (stereo partly specified) [DZUNUNCANONE],22.4
6,CC1(C)C[C@H]2C3=CC[C@@H]4[C@@]5(C)CCC(=O)C(C)(C)[C@@H]5CC[C@@]4(C)[C@]3(C)CC[C@@]2(C)C[C@@H]1O,27.4

# From ChEMBL document CHEMBL1147124, “Antigiardial activity of triterpenoids from root bark of Hippocratea excelsa” (J Nat Prod, 2007)
